Test results from article PMC7470779 (Acta Pharmacologica Sinica, 2019).

Columns and labels:
[1] = cited from earlier work
human OAT1 [2] = target: T1, human OAT1 (Homo sapiens, UniProt Q4U2R8); experiment: TER cellular uptake in hOAT1-HEK293 cells; format: in vitro ADME; settings: TER 20 μmol/L, 20 min, with or without probenecid 200 μmol/L
T1 sequence (Q4U2R8 1-550 isoform Q4U2R8-2): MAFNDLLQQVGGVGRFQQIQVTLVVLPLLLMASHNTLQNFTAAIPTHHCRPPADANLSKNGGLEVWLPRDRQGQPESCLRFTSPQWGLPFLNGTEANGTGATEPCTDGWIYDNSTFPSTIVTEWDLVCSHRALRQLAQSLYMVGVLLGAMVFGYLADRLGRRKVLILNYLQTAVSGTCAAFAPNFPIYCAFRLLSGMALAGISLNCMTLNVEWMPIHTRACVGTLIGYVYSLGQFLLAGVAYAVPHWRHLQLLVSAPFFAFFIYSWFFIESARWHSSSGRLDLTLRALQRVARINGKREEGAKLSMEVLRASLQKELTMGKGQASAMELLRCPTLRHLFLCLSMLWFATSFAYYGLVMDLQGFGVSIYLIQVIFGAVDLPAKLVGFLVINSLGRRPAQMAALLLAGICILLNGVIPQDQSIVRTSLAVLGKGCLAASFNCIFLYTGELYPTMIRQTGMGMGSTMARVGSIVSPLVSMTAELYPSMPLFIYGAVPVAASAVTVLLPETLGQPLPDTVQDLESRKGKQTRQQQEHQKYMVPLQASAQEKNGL

human OAT1 [3] = target: T1, human OAT1; experiment: Acyclovir uptake in hOAT1-HEK293 cells; format: cell-based
human transporter MRP2 [4] = target: T2, human transporter MRP2 (Homo sapiens, UniProt Q92887); experiment: Accumulation of acyclovir in MRP2-MDCK cells; format: cell-based
human OAT1 [5] = target: T1, human OAT1; experiment: Inhibition of 6-CF uptake in hOAT1-HEK293 cells; format: cell-based
human transporter MRP2 [6] = target: T2, human transporter MRP2; experiment: Transcellular transport of acyclovir in MRP2-MDCK cells; format: in vitro ADME; settings: acyclovir 10 μmol/L, TER 10 μmol/L, MK571 20 μmol/L
human OAT3 [7] = target: T3, human OAT3 (Homo sapiens, UniProt Q8TCC7); experiment: Acyclovir uptake in hOAT3-HEK293 cells; format: cell-based
T3 sequence (Q8TCC7 1-542): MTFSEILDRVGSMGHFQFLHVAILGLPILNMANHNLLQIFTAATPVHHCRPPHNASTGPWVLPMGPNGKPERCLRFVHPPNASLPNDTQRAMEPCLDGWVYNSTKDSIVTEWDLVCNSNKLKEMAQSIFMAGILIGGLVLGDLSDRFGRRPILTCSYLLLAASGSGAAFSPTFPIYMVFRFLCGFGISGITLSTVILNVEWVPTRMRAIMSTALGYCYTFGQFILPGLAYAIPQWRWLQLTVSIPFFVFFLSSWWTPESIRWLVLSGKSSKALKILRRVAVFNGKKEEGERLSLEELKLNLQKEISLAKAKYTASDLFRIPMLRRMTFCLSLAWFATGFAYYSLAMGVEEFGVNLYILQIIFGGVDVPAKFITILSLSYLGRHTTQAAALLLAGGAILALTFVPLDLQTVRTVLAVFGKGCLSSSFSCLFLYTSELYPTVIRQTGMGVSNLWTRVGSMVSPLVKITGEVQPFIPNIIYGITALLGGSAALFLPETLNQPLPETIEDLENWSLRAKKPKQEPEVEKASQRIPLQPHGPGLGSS

human OAT3 [8] = target: T3, human OAT3; experiment: Inhibition of 6-CF uptake in hOAT3-HEK293 cells; format: cell-based
human OAT3 [9] = target: T3, human OAT3; experiment: TER cellular uptake in hOAT3-HEK293 cells; format: in vitro ADME; settings: TER 20 μmol/L, 20 min, with or without probenecid 200 μmol/L
in vivo = settings: Sprague-Dawley, rat, iv, 30 mg/kg, AUC0-∞
[10] = Cumulative urinary excretion of acyclovir in rats; settings: acyclovir alone 30 mg/kg iv
[11] = Sprague-Dawley, rat, plasma, intraperitoneal

C/C(O)=C(\C#N)C(=O)Nc1ccc(C(F)(F)F)cc1 [TER, teriflunomide]
half-life of TER in the plasma [1]: approximately two weeks
substrate of OAT1 (human OAT1 [2]): not a substrate
effect on OAT1-mediated acyclovir transport (uptake) (human OAT1 [3]): significantly inhibited
IC50 (human transporter MRP2 [4]): 4.91 µM
IC50 (human OAT1 [5]): 3.39 µM
ER value of acyclovir reduced to, in the presence of inhibitor (human transporter MRP2 [6]): 1.46
effect on OAT3-mediated acyclovir transport (uptake) (human OAT3 [7]): significantly inhibited
IC50 (human OAT3 [8]): 0.87 µM
substrate of OAT3 (human OAT3 [9]): not a substrate
mean plasma concentration of TER [11]: 25900 to 37800 ng/mL
time at which peak plasma concentration of TER was reached [11]: 2 h

CN(C)C(=O)CCSC(SCCC(=O)O)c1cccc(/C=C/c2ccc3ccc(Cl)cc3n2)c1 (centres unmarked) [MK571]
ER value of acyclovir reduced to, in the presence of inhibitor (human transporter MRP2 [6]): 1.46
effect on the plasma concentration and plasma clearance of acyclovir (rats, coadministration): no effect

Nc1nc2c(ncn2COCCO)c(=O)[nH]1 [acyclovir]
AUC(0-inf) (in vivo): 30600 ± 4530 ng·h/mL
AUC(0-inf) (in vivo; rats, acyclovir 30 mg/kg iv, acyclovir alone): 25800 ± 3020 ng·h/mL
24-h cumulative urinary excretion of acyclovir (% of the dose recovered) [10]: 78.4%

Cc1oncc1C(=O)Nc1ccc(C(F)(F)F)cc1 [LEF, leflunomide]
effect on OAT1-mediated acyclovir transport (uptake) (human OAT1 [3]): only inhibited OAT3-mediated acyclovir transport
inhibitory effect on OAT1 (6-CF uptake) (human OAT1 [5]; hOAT1-HEK293 cells, LEF 1–100 μmol/L): no significant inhibitory effect
effect on OAT3-mediated acyclovir transport (uptake) (human OAT3 [7]): inhibited
IC50 (human OAT3 [8]): 4.1 µM
